# Measurements as given in paper PMC4965473 (Frontiers in Physiology, 2016).
# Counter-ions that a name gives are not always drawn.
# What was measured:
# [1] = tested on: wt M2TMD21−49; set-up: species or system influenza A
# [2] = tested on: M2 transmembrane domain (M2TMD); details: cited from earlier work
structure (smiles),measurement,setting,value
"NC12CC3CC(CC(C3)C1)C2 [amantadine, amantadine hydrochloride]",effect of longer incubation with amantadine on DEER data,[1],did not produce any additional effect on the DEER data
same,effect of amantadine on DEER distances,[1]; pH 5.5,do not change upon the addition of 2 mM amantadine
same,effect of amantadine on DEER signal / modulation depth,[1]; pH 5.5,almost negligible
same,binding affinity of amantadine versus pH,[2],"Increased binding affinity of amantadine at neutral or basic pH, compared to acidic pH"
same,effect of amantadine on M2TMD tetramer,[2],stabilizing effect of amantadine on M2TMD tetramer
